Test results as given in patent US20220273829A1, “RADIOLABELED SUGARS FOR IMAGING OF FUNGAL INFECTIONS” (THE UNITED STATES OF AMERICA, as represented by the …, priority 2019, published 2022).
Entries after “also recorded” stand apart in the source; their conditions may differ. Like-named read-outs stand apart in the source and are kept apart here.

Tests used:
bacteria [1] = settings: gram negative and gram positive; Ordonez et al. 2017; cited from earlier work
J774 macrophages [2] = settings: Ordonez et al. 2017; cited from earlier work
P. aeruginosa = settings: Ordonez et al. 2017; cited from earlier work
[3] = system: A. fumigatus-infected lungs (nasopharyngeal model); assay: Organ biodistribution after injection of radiolabeled sugar in Aspergillus-infected mice; assay type: in vivo, mouse; settings: infected vs uninfected controls / sterile lung inflammation, FIG. 2, FIG. 4C
Description: (§1) The inventors identified sugars and other molecules involved in the metabolic pathways of clinically-relevant fungal infections, and generated radiolabeled versions (3H or 14C) that were tested for in vitro uptake in bacteria (gram-negative, gram-positive, Pseudomonas aeruginosa), macrophages (J774 cell line) and m clinically-relevant fungal strains including Aspergillus, Rhizomucor, Cryptococcus and Candida albicans. Organisms and cells were exposed to the radiolabeled compounds and the in vitro uptake was measured (retained radioactivity after incubation and washing of the cultures measured using a beta counter). […] For the biodistribution and autoradiography studies showing specific uptake of the radioactive molecules by fungal-infected animals (i.e., retained radioactivity in the lungs in the infected animals but not in the control animals), the ligand(s) specific for each type of fungi was radiolabeled with 18F or other PET isotopes. […] The images are reconstructed and analyzed using special software. […]
(§2) ex vivo experiments were performed, including biodistribution (injecting the animals with radiolabeled molecules followed by euthanasia, collection of organs and measurement of radioactivity) and autoradiography (sectioning of lung tissues from injected animals to measure residual radioactivity).

[4] = system: A. fumigatus infected mice; assay: Autoradiography of tissue sections from injected infected mice; assay type: in vivo, mouse; settings: lung sections; nasopharyngeal inoculation model; FIG. 1F, FIG. 5A
Description: as §1
as §2, with “radioactivity). […]” for “radioactivity).”

bacteria [5] = assay: In vitro uptake of radiolabeled sugar in bacterial cultures; assay type: cell-based, E. coli, S. aureus; settings: FIGS. 1B-1C
Description: The inventors identified sugars and other molecules involved in the metabolic pathways of clinically-relevant fungal infections, and generated radiolabeled versions (3H or 14C) that were tested for in vitro uptake in bacteria (gram-negative, gram-positive, Pseudomonas aeruginosa), macrophages (J774 cell line) and m clinically-relevant fungal strains including Aspergillus, Rhizomucor, Cryptococcus and Candida albicans. Organisms and cells were exposed to the radiolabeled compounds and the in vitro uptake was measured (retained radioactivity after incubation and washing of the cultures measured using a beta counter). […] For the biodistribution and autoradiography studies showing specific uptake of the radioactive molecules by fungal-infected animals (i.e., retained radioactivity in the lungs in the infected animals but not in the control animals), the ligand(s) specific for each type of fungi was radiolabeled with 18F or other PET isotopes. Using the radiolabeled ligand(s), live PET imaging is performed on infected mice using a microPET/CT scanner. This is done by injecting the radioactive ligand intravenously through the tail vein and then positioning the animals inside the microPET/CT gantry and obtaining CT scan images as well as PET emission data. The images are reconstructed and analyzed using special software. […]

J774 macrophages [6] = assay: In vitro uptake of radiolabeled sugar in macrophages / mammalian cells; assay type: cell-based; settings: J774 cell line; FIG. 1D, FIG. 4B
Description: as §1, with “isotopes. Using the radiolabeled ligand(s), live PET imaging is performed on infected mice using a microPET/CT scanner.” for “isotopes.”
(§3) In vitro studies using ^3H-cellobiose were performed with measurement of retained radioactivity after incubation and washing of the cultures using a beta counter.

A. fumigatus = assay: In vitro uptake of radiolabeled sugar in fungal cultures (retained radioactivity after incubation and washing); assay type: cell-based, Aspergillus fumigatus
Description: as §1, with “isotopes. Using the radiolabeled ligand(s), live PET imaging is performed on infected mice using a microPET/CT scanner.” for “isotopes.”
as §3

[7] = system: pulmonary aspergillosis (Aspergillus lung infection); assay type: in vivo, mouse; settings: for PET/CT uptake (SUV) in lungs of infected mice: 60-minute dynamic PET/CT, pulmonary aspergillosis model vs controls and poly (I:C) treated mice
Description: The inventors identified sugars and other molecules involved in the metabolic pathways of clinically-relevant fungal infections, and generated radiolabeled versions (3H or 14C) that were tested for in vitro uptake in bacteria (gram-negative, gram-positive, Pseudomonas aeruginosa), macrophages (J774 cell line) and m clinically-relevant fungal strains including Aspergillus, Rhizomucor, Cryptococcus and Candida albicans. Organisms and cells were exposed to the radiolabeled compounds and the in vitro uptake was measured (retained radioactivity after incubation and washing of the cultures measured using a beta counter). […] For the biodistribution and autoradiography studies showing specific uptake of the radioactive molecules by fungal-infected animals (i.e., retained radioactivity in the lungs in the infected animals but not in the control animals), the ligand(s) specific for each type of fungi was radiolabeled with 18F or other PET isotopes. Using the radiolabeled ligand(s), live PET imaging is performed on infected mice using a microPET/CT scanner. This is done by injecting the radioactive ligand intravenously through the tail vein and then positioning the animals inside the microPET/CT gantry and obtaining CT scan images as well as PET emission data. The images are reconstructed and analyzed using special software. To confirm specificity for fungal infection, in vivo uptake of the ligand(s) in animal models of sterile inflammation, as well as models of bacterial infection (gram positive and gram negative bacteria) are performed.
Three main mouse models were developed: (1) Aspergillus lung infection (nasopharyngeal administration of 30 μl suspension of Aspergillus conidia), (2) Aspergillus hematogenous spread (intravenous administration of 100 μl of fungal suspension via the tail vein) and (3) sterile lung inflammation model (induced by nasopharyngeal administration of 50-100 μg of poly (I:C) suspension in 30 μl of sterile PBS; poly(I:C) is a synthetic double stranded RNA which activates Toll-like receptors-3 (TLR3), thereby inducing signaling via multiple inflammatory pathways).
Standardized uptake values (SUVs) of ^18F-L-rhamnose in infected mice were then measured, and compared to animals with sterile lung inflammation (24 hours following post-pharyngeal poly (I:C) administration) and healthy controls.

C[C@H](O)[C@H](O)[C@@H](O)[C@@H](O)C=O [L-Rhamnose]
L-Rhamnose uptake in bacteria (bacteria [1]): low
L-Rhamnose uptake in macrophages (J774 macrophages [2]): very low
L-Rhamnose uptake in P. aeruginosa (P. aeruginosa): very low

C[C@H](O)[C@H](O)[C@@H](O)[C@@H](O)C=O [^3H-L-Rhamnose]
biodistribution: uptake in lungs of infected versus control mice [3]: uptake of ^3H-L-Rhamnose in the lungs of infected animals but not in uninfected controls; also recorded: increased uptake in the lungs of infected compared to control mice and mice with sterile lung inflammation
autoradiography: uptake in lungs of infected mice [4]: accumulation of ^3H-L-Rhamnose in the lungs of infected but not uninfected animals
in vitro retention of 3H-L-Rhamnose by bacteria (bacteria [5]): minimal retention
in vitro retention/uptake of 3H-labeled sugar by macrophages (mammalian cells) (J774 macrophages [6]): minimal retention
in vitro retention/uptake of 3H-labeled sugar by A. fumigatus (A. fumigatus; retained radioactivity after incubation and washing, beta counter, FIG. 1A, FIG. 4A): significant retention

C[C@H](O)[C@H](O)[C@@H](O)[C@@H]([18F])C=O [^18F-L-rhamnose, 2-deoxy-2-[^18F]fluororhamnose]
PET/CT uptake (SUV) in lungs of infected mice ([7]; FIG. 3A): slight higher uptake in lung lesions compared to controls and poly (I:C) treated mice
PET/CT uptake (SUV) in lungs of infected mice ([7]; FIG. 3A, listed as [^18F]-rhamnose): Increased uptake is seen in the lungs of nasopharyngeally-infected pulmonary IA (AF NP) mice
PET uptake in lungs of control or sterile lung inflammation mice ([7]; control and poly (I:C) mice, averaged 520-3520 seconds post injection, FIG. 3A): no appreciable uptake is seen in the lungs of control or sterile lung (poly (I:C)inflammation mice
washout of the ligand (time activity curve) ([7]; mouse, in vivo): relatively fast washout
in vitro uptake of ^18F-L-rhamnose by A. fumigatus (A. fumigatus; live versus heat-killed cultures, FIG. 1E): specifically internalized by live A. fumigatus cultures when compared to heat-killed cultures
